Source: patent publication US4686308A, “Novel physiologically active substance MH435” (Microbial Chemistry Research Foundation, priority 1985, dated 1987)
≈ marks a conversion by molar mass, not a printed value.

Key:
A-431 cells = test: Effects on cultured carcinoma cells: A-431; type: cell-based; details: Homo sapiens, 72 h, 3 days, 37° C., cell count
Protocol: (§1) IC50 was measured by inoculating the respective cells in dished (3-5×10^4 cells/dish), incubating the cells for 1 day (at 37° C.; CO2 concentration, 5%), then adding the substance MH435-A, further incubating the resultant mixture for 3 days under the same conditions and finally counting the number of the cells.

Ki-NRK cells = test: Effects on cultured carcinoma cells: Ki-NRK; type: cell-based; details: 72 h, 3 days, 37° C., cell count
Protocol: as §1

IMC carcinoma cells = test: Effects on cultured carcinoma cells: IMC carcinoma; type: cell-based; details: 72 h, 3 days, 37° C., cell count
Protocol: as §1

Acute toxicity (LD50) = details: mouse, in vivo, ip
[1] = test system: ts Src-NRK (at 33° C.) carcinoma form; test: Effects on cultured carcinoma cells: ts Src-NRK (at 33° C.) carcinoma form; type: cell-based; details: 72 h, 3 days, cell count
[2] = test system: ts Src-NRK (at 39° C.) normal form; test: Effects on cultured carcinoma cells: ts Src-NRK (at 39° C.) normal form; type: cell-based; details: 72 h, 3 days, cell count
Sal. typhi T-63 = test: Antimicrobial activity, agar dilution method; type: cell-based; details: Salmonella enterica
Excerpt: (§2) Minimum inhibitory concentrations (MIC) of the substance against various bacteria determined by the agar dilution method using Muller-Hinton culture medium are shown in the following Table 4.

S. aureus MS8710 = test: Antimicrobial activity, agar dilution method; type: cell-based; details: Staphylococcus aureus, Muller-Hinton agar dilution
Excerpt: as §2

S. aureus 209 P = test: Antimicrobial activity, agar dilution method; type: cell-based; details: Staphylococcus aureus, Muller-Hinton agar dilution
Excerpt: as §2

S. aureus Smith = test: Antimicrobial activity, agar dilution method; type: cell-based; details: Staphylococcus aureus, Muller-Hinton agar dilution
Excerpt: as §2

Serr. marcessens = test: Antimicrobial activity, agar dilution method; type: cell-based; details: Muller-Hinton agar dilution
Excerpt: as §2

M. lysodelkticus IFO 333 = test: Antimicrobial activity, agar dilution method; type: cell-based; details: Muller-Hinton agar dilution
Excerpt: as §2

Prot. vulgaris OX19 = test: Antimicrobial activity, agar dilution method; type: cell-based; details: Proteus vulgaris, Muller-Hinton agar dilution
Excerpt: as §2

B. Subtilis PCI 219 = test: Antimicrobial activity, agar dilution method; type: cell-based; details: Bacillus subtilis, Muller-Hinton agar dilution
Excerpt: as §2

K. pneumoniae PCI 602 = test: Antimicrobial activity, agar dilution method; type: cell-based; details: Klebsiella pneumoniae, PCI602, Muller-Hinton agar dilution
Excerpt: as §2

B. cereus ATCC 10702 = test: Antimicrobial activity, agar dilution method; type: cell-based; details: Bacillus cereus, ATCC10702, Muller-Hinton agar dilution
Excerpt: as §2

Pseu. aeruginosa A3 = test: Antimicrobial activity, agar dilution method; type: cell-based; details: Pseudomonas aeruginosa, Muller-Hinton agar dilution
Excerpt: as §2

Coryn. bovis 1810 = test: Antimicrobial activity, agar dilution method; type: cell-based; details: Corynebacterium bovis, Muller-Hinton agar dilution
Excerpt: as §2

S. aureus MS9610 = test: Antimicrobial activity, agar dilution method; type: cell-based; details: Staphylococcus aureus, Muller-Hinton agar dilution
Excerpt: as §2

E. coli NIHJ = test: Antimicrobial activity, agar dilution method; type: cell-based; details: Escherichia coli, Muller-Hinton agar dilution
Excerpt: as §2

L1210 leukemia cells = test: Effects on cultured carcinoma cells: L1210; type: cell-based; details: Mus musculus, 72 h, 3 days, 37° C., cell count
Protocol: as §1

[3] = target: T1, tyrosine specific protein kinase in the epidermal growth factor receptor (Homo sapiens, UniProt P00533); test: Inhibitory activity against tyrosine specific protein kinase (epidermal growth factor receptor kinase), A-431 membrane fraction; type: biochemical; details: EGF, 0° C., 30 min, read-out: 50% inhibitory concentration (tyrosine specific protein kinase) (converted)
T1 construct: membrane fraction of human epithelial carcinoma cells A-431; endogenous in cells; host or cells: A-431 human epithelial carcinoma cells, membrane fraction
T1 sequence (P00533 25-1210): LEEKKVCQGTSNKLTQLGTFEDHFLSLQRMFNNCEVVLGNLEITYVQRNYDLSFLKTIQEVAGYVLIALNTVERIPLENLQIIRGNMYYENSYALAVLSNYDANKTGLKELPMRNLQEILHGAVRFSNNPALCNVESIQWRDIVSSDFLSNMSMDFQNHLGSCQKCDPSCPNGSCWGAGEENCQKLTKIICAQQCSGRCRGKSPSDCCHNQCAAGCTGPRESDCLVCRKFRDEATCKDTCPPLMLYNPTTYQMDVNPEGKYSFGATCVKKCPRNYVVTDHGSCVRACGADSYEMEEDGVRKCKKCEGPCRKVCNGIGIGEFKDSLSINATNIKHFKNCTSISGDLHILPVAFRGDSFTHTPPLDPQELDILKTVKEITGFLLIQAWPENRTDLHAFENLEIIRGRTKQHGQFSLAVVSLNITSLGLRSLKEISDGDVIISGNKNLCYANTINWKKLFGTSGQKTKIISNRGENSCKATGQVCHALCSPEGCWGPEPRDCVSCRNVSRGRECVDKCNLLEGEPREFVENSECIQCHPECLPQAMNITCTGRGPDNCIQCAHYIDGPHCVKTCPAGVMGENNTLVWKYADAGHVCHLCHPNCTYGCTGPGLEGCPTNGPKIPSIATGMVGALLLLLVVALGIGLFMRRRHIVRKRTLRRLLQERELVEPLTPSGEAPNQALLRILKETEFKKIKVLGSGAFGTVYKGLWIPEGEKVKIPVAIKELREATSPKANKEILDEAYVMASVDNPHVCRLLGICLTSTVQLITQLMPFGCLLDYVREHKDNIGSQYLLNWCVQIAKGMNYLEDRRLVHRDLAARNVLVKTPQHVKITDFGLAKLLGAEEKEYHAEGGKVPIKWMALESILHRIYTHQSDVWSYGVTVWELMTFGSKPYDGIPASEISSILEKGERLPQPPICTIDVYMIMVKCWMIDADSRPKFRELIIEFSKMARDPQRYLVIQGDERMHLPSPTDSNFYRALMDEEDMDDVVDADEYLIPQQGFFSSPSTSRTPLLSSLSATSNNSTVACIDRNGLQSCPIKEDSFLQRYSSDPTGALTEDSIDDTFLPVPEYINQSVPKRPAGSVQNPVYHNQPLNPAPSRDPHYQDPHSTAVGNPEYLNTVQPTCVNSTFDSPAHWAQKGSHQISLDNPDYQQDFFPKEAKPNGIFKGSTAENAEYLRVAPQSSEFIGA
Protocol: In the above processes of incubation and purification, MH435 was traced by detecting the inhibition activity thereof by measuring the tyrosine specific protein kinase in test samples in accordance with the following method.
[Measurement of tyrosine specific protein kinase activity]
The measurement of tyrosin specific protein kinase activity was carried out by modifying the method of measuring enzyme activity described by G. Carpenter et al. in The Journal of Biological Chemistry, 254, 4874-4891 (1979) using the membrane fraction of human epithelial carcinoma cells A-431 with respect to the tyrosine specific protein kinase in the epidermal growth factor receptor. […] Then, ^32 P adsorbed on the filter paper was measured by counting the radioactivity (a). At the same time, count (b) was measured for the reaction product which was obtained by the same reaction and treated in the same manner as above except that the test sample was excluded, while counts (a') and (b') were measured for the reaction products in which the membrane fractions were further excluded, respectively. The inhibitory ratio with respect to the epidermal growth factor receptor kinase was then calculated from the equation

SMILES	MIC (Sal. typhi T-63) [µg/mL]	MIC (S. aureus MS8710) [µg/mL]	MIC (S. aureus 209 P) [µg/mL]	MIC (S. aureus Smith) [µg/mL]	MIC (Serr. marcessens) [µg/mL]	MIC (M. lysodelkticus IFO 333) [µg/mL]	MIC (Prot. vulgaris OX19) [µg/mL]	MIC (B. Subtilis PCI 219) [µg/mL]	MIC (K. pneumoniae PCI 602) [µg/mL]	MIC (B. cereus ATCC 10702) [µg/mL]	MIC (Pseu. aeruginosa A3) [µg/mL]	MIC (Coryn. bovis 1810) [µg/mL]	MIC (S. aureus MS9610) [µg/mL]	MIC (E. coli NIHJ) [µg/mL]	IC50 [3] [µM]	further results
O=CNC=Cc1cc(O)ccc1O [MH435-A]	100 (≈ 558 µM)	50 (≈ 279 µM)	50 (≈ 279 µM)	25 (≈ 140 µM)	100 (≈ 558 µM)	50 (≈ 279 µM)	100 (≈ 558 µM)	100 (≈ 558 µM)	100 (≈ 558 µM)	100 (≈ 558 µM)	25 (≈ 140 µM)	100 (≈ 558 µM)	50 (≈ 279 µM)	100 (≈ 558 µM)	3.07	IC50 (A-431 cells): 3.6 µg/mL (≈ 20.1 µM); IC50 (Ki-NRK cells): 1.7 µg/mL (≈ 9.49 µM); IC50 (IMC carcinoma cells): 3.01 µg/mL (≈ 16.8 µM); LD50 (Acute toxicity (LD50)): ≥ 200 mg/kg; IC50 [1]: 2 µg/mL (≈ 11.2 µM); IC50 [2]: 3.6 µg/mL (≈ 20.1 µM); IC50 (L1210 leukemia cells): 2.41 µg/mL (≈ 13.5 µM)
O=CNCCc1cc(O)ccc1O [MH435-B]	100 (≈ 552 µM)	50 (≈ 276 µM)	50 (≈ 276 µM)	50 (≈ 276 µM)	100 (≈ 552 µM)	50 (≈ 276 µM)	50 (≈ 276 µM)	100 (≈ 552 µM)	100 (≈ 552 µM)	100 (≈ 552 µM)	50 (≈ 276 µM)	100 (≈ 552 µM)	50 (≈ 276 µM)	100 (≈ 552 µM)	33.1	
